According to patent publication US7172751B2, “D-amino acid peptides” (Immunomedics, Inc., priority 2003, dated 2007):
*1 amine or outer side, *2 acyl side, *3 side chain or, on linkers, in order; H or OH if unused. Where a SMILES comes first, the peptide text is derived from it. Side-chain parts run from the residue outwards. [ ]: non-standard residue; d: D form. The star is where a group is joined. DOTA = O=C(O)CN1CCN(CC(=O)O)CCN(CC(=O)*)CCN(CC(=O)O)CC1; NH(2-(imidazol-4-yl)ethyl) = c1ncc(CCN*)[nH]1; Suc = O=C(CCC(=O)[*:2])[*:1]

Tests used:
[1] = Pretargeting biodistribution of 111In-IMP 241, 281, 284 after 125I-hMN-14×m679; conditions: NCr nude, mouse, in vivo, total radioactivity
Description: NCr nudes: (NCI) from Taconic, 4 weeks of age
At the times shown above, 5 mice per time point will be necropsied. Tissues (tumor, liver, spleen, kidney, lungs, blood, stomach, large and small intestines) will be isolated, weighed and counted in the appropriate windows.

[2] = Procedure: A mixture of the labeled peptide and mouse serum was made and incubated at 37° C. The mouse serum was fresh nude mouse serum obtained from (GSCC on the same day). The Indium-labeled peptide solution (50 μL) and 450 μL of the mouse serum were combined and vortexed. This was incubated at 37° C. for 18.0 hrs. Injections were made into the reverse phase HPLC at t0=0 hrs and t1=18.0 hrs.
Aliquots were withdrawn at various time points and examined by reverse phase HPLC and by size exclusion HPLC.
The peptide was monitored as described above by HPLC.

[3] = test system: GW-39 human colonic xenograft tumors; assay: Biodistribution of 111In IMP 237 in mice pretargeted with hMN-14×m679; assay type: in vivo; conditions: pretargeting
Description: The animals were sacrificed at 3, 24, 48 hr post injection. The tumor to non-tumor ratios of the peptides in the pretargeting study are show in Table 2.

NC(=O)[C@H](CCCCNC(=O)CNC(=O)CCC(=O)NCCc1cnc[nH]1)NC(=O)[C@@H](Cc1ccc(O)cc1)NC(=O)[C@H](CCCCNC(=O)CNC(=O)CCC(=O)NCCc1cnc[nH]1)NC(=O)[C@H](Cc1ccccc1)NC(=O)CN1CCN(CC(=O)O)CCN(CC(=O)O)CCN(CC(=O)O)CC1 [IMP 241, DOTA-Phe-Lys(HSG)-D-Tyr-Lys(HSG)-NH2, reference compound] ({DOTA}-FK([Gly-Suc-NH(2-(imidazol-4-yl)ethyl)])[dY]K([Gly-Suc-NH(2-(imidazol-4-yl)ethyl)])-NH2)
tissue uptake at 24 h [1]: 0.28 %ID/g | decomposed in mouse serum [2]: ~5%

NC(=O)[C@H](CCCCNC(=O)CNC(=O)CCC(=O)NCCc1cnc[nH]1)NC(=O)[C@H](Cc1ccc(O)cc1)NC(=O)[C@H](CCCCNC(=O)CNC(=O)CCC(=O)NCCc1cnc[nH]1)NC(=O)[C@H](Cc1ccccc1)NC(=O)CN1CCN(CC(=O)O)CCN(CC(=O)O)CCN(CC(=O)O)CC1 [IMP 237, DOTA-Phe-Lys(HSG)-Tyr-Lys(HSG)-NH2] ({DOTA}-FK([Gly-Suc-NH(2-(imidazol-4-yl)ethyl)])YK([Gly-Suc-NH(2-(imidazol-4-yl)ethyl)])-NH2)
% Injected/g Tissue ([3]; Blood, 3 hr After 111In): 2.42 ± 0.61 % Injected/g Tissue | % Injected/g Tissue ([3]; Blood, 24 hr After 111In): 0.73 ± 0.17 % Injected/g Tissue | % Injected/g Tissue ([3]; Blood, 48 hr After 111In): 0.17 ± 0.06 % Injected/g Tissue | % Injected/g Tissue ([3]; GW-39, 3 hr After 111In): 7.25 ± 2.79 % Injected/g Tissue | % Injected/g Tissue ([3]; GW-39, 24 hr After 111In): 8.38 ± 1.70 % Injected/g Tissue | % Injected/g Tissue ([3]; GW-39, 48 hr After 111In): 5.39 ± 1.46 % Injected/g Tissue | % Injected/g Tissue ([3]; Kidney, 3 hr After 111In): 3.59 ± 0.75 % Injected/g Tissue | % Injected/g Tissue ([3]; Kidney, 24 hr After 111In): 2.24 ± 0.40 % Injected/g Tissue | % Injected/g Tissue ([3]; Kidney, 48 hr After 111In): 1.27 ± 0.33 % Injected/g Tissue | % Injected/g Tissue ([3]; Lg. Int., 24 hr After 111In): 0.17 ± 0.03 % Injected/g Tissue | % Injected/g Tissue ([3]; Lg. Int., 48 hr After 111In): 0.13 ± 0.03 % Injected/g Tissue | % Injected/g Tissue ([3]; Liver, 3 hr After 111In): 0.58 ± 0.13 % Injected/g Tissue | % Injected/g Tissue ([3]; Liver, 24 hr After 111In): 0.62 ± 0.09 % Injected/g Tissue | % Injected/g Tissue ([3]; Liver, 48 hr After 111In): 0.61 ± 0.16 % Injected/g Tissue | % Injected/g Tissue ([3]; Lungs, 3 hr After 111In): 1.19 ± 0.26 % Injected/g Tissue | % Injected/g Tissue ([3]; Lungs, 24 hr After 111In): 0.44 ± 0.10 % Injected/g Tissue | % Injected/g Tissue ([3]; Lungs, 48 hr After 111In): 0.22 ± 0.06 % Injected/g Tissue | % Injected/g Tissue ([3]; Sm. Int., 3 hr After 111In): 0.65 ± 0.74 % Injected/g Tissue | % Injected/g Tissue ([3]; Sm. Int., 24 hr After 111In): 0.18 ± 0.03 % Injected/g Tissue | % Injected/g Tissue ([3]; Sm. Int., 48 hr After 111In): 0.11 ± 0.02 % Injected/g Tissue | % Injected/g Tissue ([3]; Spleen, 3 hr After 111In): 0.50 ± 0.14 % Injected/g Tissue | % Injected/g Tissue ([3]; Spleen, 24 hr After 111In): 0.71 ± 0.16 % Injected/g Tissue | % Injected/g Tissue ([3]; Spleen, 48 hr After 111In): 0.57 ± 0.15 % Injected/g Tissue | % Injected/g Tissue ([3]; Stomach, 3 hr After 111In): 0.18 ± 0.03 % Injected/g Tissue | converted to the shorter retention time peak [2]: about 70%
